How the values were obtained:
[1] = Drug accumulation in human KB cells at 10 uM incubated for 4 hrs by LC-MS/MS analysis; type: ADME, cell-based
[2] = Reversal of multidrug resistance in human KBV Cells assessed as increase in PTX-induced cytotoxicity by measuring cell survival rate at 10 uM incubated for 72 hrs in presence of paclitaxel by MTT assay relative to control; type: functional; details: read-out: Survival
[3] = Cytotoxicity against human KBV Cells assessed as cell survival rate at 10 uM incubated for 72 hrs by MTT assay; type: functional; details: read-out: Survival
[4] = Reversal of multidrug resistance in human KBV Cells assessed as increase in PTX-induced cytotoxicity by measuring cell survival rate at 5 uM incubated for 72 hrs in presence of paclitaxel by MTT assay relative to control; type: functional; details: read-out: Survival
[5] = Reversal of multidrug resistance in human KBV Cells assessed as reversal fold of paclitaxel IC50 at 5 uM incubated for 72 hrs in presence of paclitaxel by MTT assay; type: functional
[6] = Reversal of multidrug resistance in human KBV Cells assessed as reversal fold of paclitaxel IC50 at 10 uM incubated for 72 hrs in presence of paclitaxel by MTT assay; type: functional
[7] = Drug accumulation in human KBV cells at 10 uM incubated for 4 hrs by LC-MS/MS analysis; type: ADME, cell-based
[8] = Induction of cell cycle arrest in human KBV cells assessed as accumulation of cells at Sub-G1 phase at 10 uM incubated for 24 hrs by flow cytometry analysis (reference value: 1.24 +/- 0.14%); type: functional
[9] = Induction of Ptx-mediated cell cycle arrest in human KBV cells assessed as accumulation of cells at S phase at 10 uM incubated for 24 hrs in presence of paclitaxel by flow cytometry analysis (Rvb =16.63 +/- 0.4%); type: functional
[10] = Induction of cell cycle arrest in human KBV cells assessed as accumulation of cells at G1-G0 phase at 10 uM incubated for 24 hrs by flow cytometry analysis (reference value: 62.34 +/- 0.24%); type: functional
[11] = Induction of Ptx-mediated cell cycle arrest in human KBV cells assessed as accumulation of cells at G1-G0 phase at 10 uM incubated for 24 hrs in presence of paclitaxel by flow cytometry analysis (Rvb =57.76 +/- 0.78%); type: functional
[12] = Induction of cell cycle arrest in human KBV cells assessed as accumulation of cells at G2-M phase at 10 uM incubated for 24 hrs by flow cytometry analysis (reference value: 24.94 +/- 0.21%); type: functional
[13] = Induction of cell cycle arrest in human KBV cells assessed as accumulation of cells at S phase at 10 uM incubated for 24 hrs by flow cytometry analysis (reference value: 12.42 +/- 0.41%); type: functional
[14] = Induction of Ptx-mediated cell cycle arrest in human KBV cells assessed as accumulation of cells at Sub-G1 phase at 10 uM incubated for 24 hrs in presence of paclitaxel by flow cytometry analysis (reference value: 1.21 +/- 0.3%); type: functional
[15] = Induction of Ptx-mediated cell cycle arrest in human KBV cells assessed as accumulation of cells at G2-M phase at 10 uM incubated for 24 hrs in presence of paclitaxel by flow cytometry analysis (Rvb =25.34 +/- 0.92%); type: functional

Compound	Drug uptake [1]	viability at 10 µM [2] [%]	viability at 10 µM [3] [%]	viability at 5 µM [4] [%]	fold change (FC) [5]	fold change (FC) [6]	Drug uptake [7]	Activity [8] [%]	Activity [9] [%]	Activity [10] [%]	Activity [11] [%]	Activity [12] [%]	Activity [13] [%]	Activity [14] [%]	Activity [15] [%]
CC(C)(C)OC(=O)C[C@H](NC(=O)OC(C)(C)C)C(=O)N[C@H]1CC[C@]2(C)[C@H]3C[C@@H](O)[C@@H]4[C@@H]([C@]5(C)CC[C@@H](C(C)(C)O)O5)CC[C@@]4(C)[C@]3(C)CC[C@H]2C1(C)C	Not Active	28	94	33	61	130	Not Active								
COc1ccc(CCN(C)CCCC(C#N)(c2ccc(OC)c(OC)c2)C(C)C)cc1OC (stereo not drawn)		41						1.07	21.71	58.36	39.76	26.78	14.59	8.56	37.67
CC(C)(C)OC(=O)N[C@@H](Cc1ccc(OC(C)(C)C)cc1)C(=O)N[C@H]1CC[C@]2(C)[C@H]3C[C@@H](O)[C@@H]4[C@@H]([C@]5(C)CC[C@@H](C(C)(C)O)O5)CC[C@@]4(C)[C@]3(C)CC[C@H]2C1(C)C	Not Active	19	85	30	35	209	Not Active								

From ChEMBL document CHEMBL5331114, “Discovery of Pyxinol Amide Derivatives Bearing Amino Acid Residues as Nonsubstrate Allosteric Inhibitors of P-Glycoprotein-Mediated Multidrug Resistance” (J Med Chem, 2023)
